Among the data in patent US10550105B2 (Ribon Therapeutics Inc., priority 2018, dated 2020) are IC50 values, retold here.

This test has as its target PARP7 (Homo sapiens (Human), UniProt Q7Z3E1). The test is described as follows: Enzymatic assay for inhibition of PARP7: TR-FRET displacement of biotinylated Probe A from the TIPARP active site. It counts as binding. The note with it: Table A-1. The procedure, abridged:
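Read-out: 665/615 nm emission ratio (ex 320 nm, 90 μs delay) indexing bound TIPARP–Probe A. Final incubation 30 min, 25° C; compounds in dose response. Curve fit of % inhibition vs concentration; Hill slope floating or fixed at 1 (3-parameter).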
In general terms: Time-resolved FRET reads energy transfer from a long-lived donor to a nearby acceptor.

Some results are limits rather than exact numbers.

Sequence of PARP7 (Q7Z3E1 whole entry): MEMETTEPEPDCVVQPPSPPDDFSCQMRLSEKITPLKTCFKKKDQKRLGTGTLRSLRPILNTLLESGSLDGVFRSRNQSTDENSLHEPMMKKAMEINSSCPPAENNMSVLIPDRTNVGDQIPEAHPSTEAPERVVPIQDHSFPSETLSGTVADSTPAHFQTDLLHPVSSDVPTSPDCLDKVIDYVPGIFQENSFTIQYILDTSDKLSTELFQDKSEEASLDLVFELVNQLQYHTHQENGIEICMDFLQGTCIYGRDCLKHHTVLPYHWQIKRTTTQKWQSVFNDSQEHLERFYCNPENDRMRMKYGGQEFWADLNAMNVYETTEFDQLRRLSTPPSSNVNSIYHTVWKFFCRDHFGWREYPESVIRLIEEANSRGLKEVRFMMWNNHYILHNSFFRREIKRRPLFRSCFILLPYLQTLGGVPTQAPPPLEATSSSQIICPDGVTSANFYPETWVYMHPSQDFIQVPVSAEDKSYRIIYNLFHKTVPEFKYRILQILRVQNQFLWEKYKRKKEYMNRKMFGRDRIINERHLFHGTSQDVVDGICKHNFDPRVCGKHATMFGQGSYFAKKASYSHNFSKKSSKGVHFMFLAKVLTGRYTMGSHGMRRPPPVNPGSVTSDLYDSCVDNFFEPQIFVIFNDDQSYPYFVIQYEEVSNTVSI

As a reminder, the IC50 is the concentration at which inhibition is half-maximal. As to `O=C(c1cccc(OC[C@@H]2CCCN2c2cn[nH]c(=O)c2C(F)(F)F)c1)N1CCN(c2ncc(C(F)(F)F)cn2)CC1` [Example 441, (S)-4-(Trifluoromethyl)-5-(2-((3-(4-(5-(trifluoromethyl)pyrimidin-2-yl)piperazine-1-carbonyl)phenoxy)methyl)pyrrolidin-1-yl)pyridazin-3(2H)-one], the IC50 is less than 100 nM.
With `N#Cc1ccc(N2CCN(C(=O)c3cncc(OCC4CCCN4c4cn[nH]c(=O)c4C(F)(F)F)c3)CC2)nc1` (stereo not drawn) [Example 442, 6-(4-(5-((1-(6-Oxo-5-(trifluoromethyl)-1,6-dihydropyridazin-4-yl)pyrrolidin-2-yl)methoxy)nicotinoyl)piperazin-1-yl)nicotinonitrile] the figure was less than 100 nM; with `N#Cc1cnc(N2CCN(C(=O)c3cccc(OC[C@@H]4CCCN4c4cn[nH]c(=O)c4C(F)(F)F)c3)CC2)cn1` [Example 443, (S)-5-(4-(3-((1-(6-Oxo-5-(trifluoromethyl)-1,6-dihydropyridazin-4-yl)pyrrolidin-2-yl)methoxy)benzoyl)piperazin-1-yl)pyrazine-2-carbonitrile], less than 100 nM.
For the molecule `N#Cc1cnc(N2CCN(C(=O)c3cncc(OC[C@@H]4CCCN4c4cn[nH]c(=O)c4C(F)(F)F)c3)CC2)cn1` [Example 444, (S)-5-(4-(5-((1-(6-Oxo-5-(trifluoromethyl)-1,6-dihydropyridazin-4-yl)pyrrolidin-2-yl)methoxy)nicotinoyl)piperazin-1-yl)pyrazine-2-carbonitrile], the IC50 was less than 100 nM.
Take `O=C(c1cccc(OC[C@@H]2CCCN2c2cn[nH]c(=O)c2C(F)(F)F)c1)N1CCN(c2ncccn2)CC1` [Example 445, (S)-5-(2-((3-(4-(Pyrimidin-2-yl)piperazine-1-carbonyl)phenoxy)methyl)pyrrolidin-1-yl)-4-(trifluoromethyl)pyridazin-3(2H)-one]: the IC50 is less than 100 nM.
With `Cc1ccc(N2CCN(C(=O)c3cccc(OC[C@@H]4CCCN4c4cn[nH]c(=O)c4C(F)(F)F)c3)CC2)nc1` [Example 446, (S)-5-(2-((3-(4-(5-Methylpyridin-2-yl)piperazine-1-carbonyl)phenoxy)methyl)pyrrolidin-1-yl)-4-(trifluoromethyl)pyridazin-3(2H)-one] the figure was less than 100 nM; with `Cc1cnc(N2CCN(C(=O)c3cccc(OC[C@@H]4CCCN4c4cn[nH]c(=O)c4C(F)(F)F)c3)CC2)nc1` [Example 447, (S)-5-(2-((3-(4-(5-Methylpyrimidin-2-yl)piperazine-1-carbonyl)phenoxy)methyl)pyrrolidin-1-yl)-4-(trifluoromethyl)pyridazin-3(2H)-one], less than 100 nM.
`O=C(COC[C@@H]1CCCN1c1cn[nH]c(=O)c1C(F)(F)F)N1CCN(c2ccccn2)CC1` [Example 448, (S)-5-(2-((2-Oxo-2-(4-(pyridin-2-yl)piperazin-1-yl)ethoxy)methyl)pyrrolidin-1-yl)-4-(trifluoromethyl)pyridazin-3(2H)-one] returned an IC50 of 100 to 1000 nM.
`CC(=O)N1CCN(C(=O)c2cccc(OC[C@@H]3CCCN3c3cn[nH]c(=O)c3C(F)(F)F)c2)CC1` [Example 449, (S)-5-(2-((3-(4-Acetylpiperazine-1-carbonyl)phenoxy)methyl)pyrrolidin-1-yl)-4-(trifluoromethyl)pyridazin-3(2H)-one] came in with an IC50 of 100 to 1000 nM.
With `CC1CN(c2ccc(C#N)cn2)CCN1C(=O)c1cccc(OC[C@@H]2CCCN2c2cn[nH]c(=O)c2C(F)(F)F)c1` (stereo partly drawn) [Example 450, 6-(3-methyl-4-(3-(((S)-1-(6-Oxo-5-(trifluoromethyl)-1,6-dihydropyridazin-4-yl)pyrrolidin-2-yl)methoxy)benzoyl)piperazin-1-yl)nicotinonitrile] the figure was less than 100 nM; with `O=C(c1cccc(OC[C@@H]2CCCN2c2cn[nH]c(=O)c2C(F)(F)F)c1)N1CCn2cnnc2C1` [Example 451, (S)-5-(2-((3-(5,6,7,8-Tetrahydro-[1,2,4]triazolo[4,3-a]pyrazine-7-carbonyl)phenoxy)methyl)pyrrolidin-1-yl)-4-(trifluoromethyl)pyridazin-3(2H)-one], 100 to 1000 nM; with `N#Cc1ccc(N2CCN(C(=O)c3cccc(OC[C@@H]4C[C@H](C#N)CN4c4cn[nH]c(=O)c4C(F)(F)F)c3)CC2)nc1` [Example 452, 6-(4-(3-(((2S,4S)-4-Cyano-1-(6-oxo-5-(trifluoromethyl)-1,6-dihydropyridazin-4-yl)pyrrolidin-2-yl)methoxy)benzoyl)piperazin-1-yl)nicotinonitrile], less than 100 nM.
For `N#CCc1ccc(N2CCN(C(=O)c3cccc(OC[C@@H]4CCCN4c4cn[nH]c(=O)c4C(F)(F)F)c3)CC2)cc1` [Example 453, (S)-2-(4-(4-(3-((1-(6-Oxo-5-(trifluoromethyl)-1,6-dihydropyridazin-4-yl)pyrrolidin-2-yl)methoxy)benzoyl)piperazin-1-yl)phenyl)acetonitrile], the IC50 is less than 100 nM.
Molecule `O=C(CCOC[C@@H]1CCCN1c1cn[nH]c(=O)c1C(F)(F)F)N1CCN(c2ccccn2)CC1` [Example 454, (S)-5-(2-((3-Oxo-3-(4-(pyridin-2-yl)piperazin-1-yl)propoxy)methyl)pyrrolidin-1-yl)-4-(trifluoromethyl)pyridazin-3(2H)-one] gave an IC50 of less than 100 nM.
With `N#Cc1ccc(N2CCN(C(=O)c3cccc(NCC4CCCN4c4cn[nH]c(=O)c4C(F)(F)F)c3)CC2)nc1` (stereo not drawn) [Example 455, 6-(4-(3-(((1-(6-Oxo-5-(trifluoromethyl)-1,6-dihydropyridazin-4-yl)pyrrolidin-2-yl)methyl)amino)benzoyl)piperazin-1-yl)nicotinonitrile] the figure was less than 100 nM; with `O=C(CCOC[C@@H]1CCCN1c1cn[nH]c(=O)c1C(F)(F)F)N1CCN(c2ncccn2)CC1` [Example 456, (S)-5-(2-((3-Oxo-3-(4-(pyrimidin-2-yl)piperazin-1-yl)propoxy)methyl)pyrrolidin-1-yl)-4-(trifluoromethyl)pyridazin-3(2H)-one], less than 100 nM; with `O=C(CCOC[C@@H]1CCCN1c1cn[nH]c(=O)c1C(F)(F)F)N1CCN(c2ncc(C(F)(F)F)cn2)CC1` [Example 457, (S)-5-(2-((3-Oxo-3-(4-(5-(trifluoromethyl)pyrimidin-2-yl)piperazin-1-yl)propoxy)methyl)pyrrolidin-1-yl)-4-(trifluoromethyl)pyridazin-3(2H)-one], less than 100 nM.
With `O=C(CCOC[C@@H]1CCCN1c1cn[nH]c(=O)c1C(F)(F)F)N1CCN(c2ccc(C(F)(F)F)cn2)CC1` [Example 458, (S)-5-(2-((3-Oxo-3-(4-(5-(trifluoromethyl)pyridin-2-yl)piperazin-1-yl)propoxy)methyl)pyrrolidin-1-yl)-4-(trifluoromethyl)pyridazin-3(2H)-one] the figure was less than 100 nM; with `C[C@H]1CCN(c2cn[nH]c(=O)c2C(F)(F)F)[C@H]1COc1cccc(C(=O)N2CCN(c3ccc(C#N)cn3)CC2)c1` [Example 459, 6-(4-(3-(((2R,3S)-3-methyl-1-(6-oxo-5-(trifluoromethyl)-1,6-dihydropyridazin-4-yl)pyrrolidin-2-yl)methoxy)benzoyl)piperazin-1-yl)nicotinonitrile], 100 to 1000 nM.
As for `C[C@@H]1CCN(c2cn[nH]c(=O)c2C(F)(F)F)[C@@H]1COc1cccc(C(=O)N2CCN(c3ccc(C#N)cn3)CC2)c1` [Example 460, 6-(4-(3-(((2S,3R)-3-methyl-1-(6-oxo-5-(trifluoromethyl)-1,6-dihydropyridazin-4-yl)pyrrolidin-2-yl)methoxy)benzoyl)piperazin-1-yl)nicotinonitrile], the figure is less than 100 nM.
On to `N#Cc1cnc(N2CCN(C(=O)CCOC[C@@H]3CCCN3c3cn[nH]c(=O)c3C(F)(F)F)CC2)nc1` [Example 461, (S)-2-(4-(3-((1-(6-Oxo-5-(trifluoromethyl)-1,6-dihydropyridazin-4-yl)pyrrolidin-2-yl)methoxy)propanoyl)piperazin-1-yl)pyrimidine-5-carbonitrile], for which the IC50 is less than 100 nM.
With `N#Cc1ccc(N2CCN(C(=O)CCOC[C@@H]3CCCN3c3cn[nH]c(=O)c3C(F)(F)F)CC2)cc1` [Example 462, (S)-4-(4-(3-((1-(6-Oxo-5-(trifluoromethyl)-1,6-dihydropyridazin-4-yl)pyrrolidin-2-yl)methoxy)propanoyl)piperazin-1-yl)benzonitrile] the figure was less than 100 nM; with `N#Cc1cccnc1N1CCN(C(=O)CCOC[C@@H]2CCCN2c2cn[nH]c(=O)c2C(F)(F)F)CC1` [Example 463, (S)-2-(4-(3-((1-(6-Oxo-5-(trifluoromethyl)-1,6-dihydropyridazin-4-yl)pyrrolidin-2-yl)methoxy)propanoyl)piperazin-1-yl)nicotinonitrile], less than 100 nM.
As for `N#Cc1ccc(N2CCN(C(=O)c3cccc(OC[C@@H]4C[C@@H](C#N)CN4c4cn[nH]c(=O)c4C(F)(F)F)c3)CC2)nc1` [Example 464, 6-(4-(3-(((2S,4R)-4-Cyano-1-(6-oxo-5-(trifluoromethyl)-1,6-dihydropyridazin-4-yl)pyrrolidin-2-yl)methoxy)benzoyl)piperazin-1-yl)nicotinonitrile], the figure is not below 1000 nM; as for `N#Cc1ccc(N2CCN(C(=O)c3ccc(OCCOCC4CCN(c5cn[nH]c(=O)c5C(F)(F)F)C4)cc3)CC2)nc1` (stereo not drawn) [Example 465, 6-(4-(4-(2-((1-(6-Oxo-5-(trifluoromethyl)-1,6-dihydropyridazin-4-yl)pyrrolidin-3-yl)methoxy)ethoxy)benzoyl)piperazin-1-yl)nicotinonitrile], less than 100 nM; as for `N#Cc1ccc(N2CCN(C(=O)CCOCCOCC3CCN(c4cn[nH]c(=O)c4C(F)(F)F)C3)CC2)nc1` (stereo not drawn) [Example 466, 6-(4-(3-(2-((1-(6-Oxo-5-(trifluoromethyl)-1,6-dihydropyridazin-4-yl)pyrrolidin-3-yl)methoxy)ethoxy)propanoyl)piperazin-1-yl)nicotinonitrile], less than 100 nM.
With `N#Cc1ccc(N2CCN(C(=O)c3cccc(OCCOCC4CCN(c5cn[nH]c(=O)c5C(F)(F)F)C4)c3)CC2)nc1` (stereo not drawn) [Example 467, 6-(4-(3-(2-((1-(6-Oxo-5-(trifluoromethyl)-1,6-dihydropyridazin-4-yl)pyrrolidin-3-yl)methoxy)ethoxy)benzoyl)piperazin-1-yl)nicotinonitrile] the figure was less than 100 nM.
